In series [1] the test system is NNRTI-resistant HIV-1 strain A17 with a Y181C mutation in RT. The series can be described thus: microbe, parasite or virus in culture. Conditions: for effective concentrations against NNRTI-resistant HIV-1 isolate A17 (in words): both NNRTI-resistant isolates. It counts as cell-based.
In a further series the test system is HIV-1 strain HTLVIIIB
Nature of the series: Inhibition of HIV-1 HTLVIIIB replication in PBMC (p24 antigen EIA). It counts as cell-based. Conditions: for IC50: HIV-1 HTLVIIIB in human PBMC, p24 on day 7, read-out: IC50 HTLVHIB. Here is the method: (§1) Normal human peripheral blood mononuclear cells (PBMNC) from HIV-negative donors were cultured 72 hours in RPMI 1640 supplemented with 20% (v/v) heat-inactivated fetal bovine serum (FBS), 3% interleukin-2, 2 mM L-glutamine, 25 mM HEPES, 2 g/L NaHCO3, 50 μg/mL gentamicin, and 4 μg/mL phytohemagglutinin prior to exposure to the HIV-1 strain HTLVIIIB. The cells were then infected with virus at a multiplicity of infection (MOI) of 0.1 during a 1-hour adsorption period at 37° C. in a humidified 5% CO2 atm. Subsequently, cells were cultured in 96-well microtiter plates (100 μl/well; 2×10^6 cells/mL) in the presence of various inhibitor concentrations. Aliquots of culture supernatants were removed from the wells on the 7th day after infection for p24 antigen assays. The applied p24 enzyme immunoassay (EIA) was the unmodified kinetic assay commercially available from Coulter Corporation/Immunotech, Inc. (Westbrooke, Me.), which utilizes a murine mAb to HIV core protein coated onto microwell strips to which the antigen present in the test culture supernatant samples binds. Percent viral inhibition was calculated by comparing the p24 values from the test substance-treated infected cells with p24 values from untreated infected cells (i.e., virus controls). The effects of various treatments on cell viability were also examined and the results were expressed as the cytotoxic concentration (CC)50 values. The selectivity indices (SI) were calculated using the formula: SI=CC50/IC50.

The subject of series [2] is A17 variant with Y181C plus K103N mutations in RT. The series can be described thus: microbe, parasite or virus in culture. Type of series: cell-based, HIV-1. Conditions: for effective concentrations against NNRTI-resistant HIV-1 isolate A17 variant (in words): both NNRTI-resistant isolates.
Series [3] relates to human peripheral blood mononuclear cells (PBMC). The series can be described thus: Cell viability / cytotoxicity in PBMC. It counts as cell-based. The settings on record: for CC50: cytotoxic concentration, PBMC viability. Here is the method: as §1
The mark [4] stands for this setting: Human immunodeficiency virus 1, read-out: IC50 A17.
Where [5] appears, read: Human immunodeficiency virus 1, 168 h.
The mark [6] stands for this setting: Human immunodeficiency virus 1, read-out: IC50 A17 variant.
The mark [7] stands for this setting: NNRTI-resistant HIV, A17 (Y181C), read-out: IC50 A17.
[8] abbreviates: NNRTI-resistant HIV, A17 variant (Y181C plus K103N), read-out: IC50 A17 variant.

Where two headings read alike, the source gives them in different places. Some results are limits rather than exact numbers.

Consider `CC(C)Nc1cccnc1N1CCN(C(=O)c2cc3cc(NS(C)(=O)=O)ccc3[nH]2)CC1` [Delavirdine, reference compound], for which the IC50 in series [1] (setting [4]) is 50 µM; in the series on HIV-1 strain HTLVIIIB (setting [5]) it was 0.009 µM; in series [2] (setting [6]), above 100 µM.

Regarding `Cc1ccnc2c1NC(=O)c1cccnc1N2C1CC1` [Nevirapine, reference compound], the values for the IC50 (in series [1] (setting [4]); in the series on HIV-1 strain HTLVIIIB (setting [5]); in series [2] (setting [6])) were above 100 µM, 0.034 µM and above 100 µM, respectively.

Molecule “N-[1-(1-Adamantyl)methyl]-N′-[2-(thiazolyl)]thiourea [Compound 5]” yielded a CC50 in series [3] of 40 µM. The IC50 in series [1] (setting [7]) is 0.6 µM. For the same molecule, the “effective concentrations against NNRTI-resistant HIV-1 isolate A17 (in words)” value in series [1] is “nanomolar to low micromolar”. In the series with HIV-1 strain HTLVIIIB, the “IC50 values, inhibition of HIV-1 replication (in words)” value (shortened to “IC50 values, inhibition”) is recorded as “subnanomolar” and the IC50 was below 0.001 µM. Also, the “effective concentrations against NNRTI-resistant HIV-1 isolate A17 variant (in words)” value in series [2] was “nanomolar to low micromolar”.

On to “N-[1-(1-Furoylmethyl)]-N′-[2-(thiazolyl)]thiourea [Compound 6]”, for which, in series [3], the “toxicity to PBMC (in words)” value is “minimally toxic” and the CC50 is above 100 µM. Besides, the “effective concentrations against NNRTI-resistant HIV-1 isolate A17 (in words)” value in series [1] is “nanomolar to low micromolar”. In addition, in the series on HIV-1 strain HTLVIIIB, the “IC50 values, inhibition” value is “subnanomolar” and the IC50 is below 0.001 µM. Besides, the IC50 in series [2] (setting [8]) was 0.6 µM. The “effective concentrations against NNRTI-resistant HIV-1 isolate A17 variant (in words)” value in series [2] was “nanomolar to low micromolar”.

Turning to “N-[2-(1-Cyclohexenylethyl)]-N′-[2-(thiazolyl)]thiourea [Compound 2]”, the CC50 in series [3] was 4 µM. Further, the results for the IC50 (in series [1] (setting [7]); in the series on HIV-1 strain HTLVIIIB; in series [2] (setting [8])) were 0.9 µM, 0.007 µM and above 100 µM, respectively.

“N-[2-(2-Indole)ethyl]-N′-[2-(thiazolyl)]thiourea [Compound 8]”: the CC50 in series [3] was 28 µM. For the same molecule, in series [1], the “effective concentrations against NNRTI-resistant HIV-1 isolate A17 (in words)” value was “nanomolar to low micromolar”. In the series on HIV-1 strain HTLVIIIB, the “IC50 values, inhibition” value is reported as “subnanomolar” and the IC50 was below 0.001 µM. For the same molecule, the “effective concentrations against NNRTI-resistant HIV-1 isolate A17 variant (in words)” value in series [2] was “nanomolar to low micromolar”.

Regarding “N-[2-(2-Piperdine)ethyl]-N′-[2-(thiazolyl)]thiourea [Compound 9]”, the IC50 in the series on HIV-1 strain HTLVIIIB was above 100 µM.

“N-[2-(2-Thiophenylethyl)]-N′-[2-(thiazolyl)]thiourea [Compound 1]” returned a CC50 in series [3] of 71 µM. In addition, the IC50 in series [1] (setting [7]) is above 100 µM. Moreover, in the series on HIV-1 strain HTLVIIIB, the “IC50 values, inhibition” value is given as “subnanomolar” and the IC50 is below 0.001 µM.

As for “N-[2-(4-Hydroxyphenyl)ethyl]-N′-[2-(thiazolyl)]thiourea [Compound 10]”, the IC50 in the series on HIV-1 strain HTLVIIIB was above 100 µM.

On to “N-[2-(4-Methylphenyl)ethyl]-N′-[2-(thiazolyl)]thiourea [Compound 4]”, for which the CC50 in series [3] was above 100 µM. Besides, the IC50 is 0.07 µM in the series with HIV-1 strain HTLVIIIB and above 100 µM in series [2] (setting [8]).

The molecule “N-[2-(Phenoxyethyl)]-N′-[2-(thiazolyl)]thiourea [Compound 3]” returned a CC50 in series [3] above 100 µM. Also, in the series on HIV-1 strain HTLVIIIB, the “IC50 values, inhibition” value is given as “subnanomolar” and the IC50 is below 0.001 µM. Besides, the IC50 in series [2] (setting [8]) is above 100 µM.

As to “N-[2-Pyridylethyl]-N′-[2-(thiazolyl)]thiourea [Compound 11]”, the midpoint of cytotoxicity in series [3], the CC50, lay at 100 µM. In addition, the IC50 in the series with HIV-1 strain HTLVIIIB came to 1 µM.

As for “N-[3-(2-Imidazole)propyl]-N′-[2-(thiazolyl)]thiourea [Compound 7]”, in series [3], the midpoint of cytotoxicity, the CC50, lay at 35 µM. Moreover, the IC50 was above 100 µM in series [1] (setting [7]), below 0.001 µM in the series with HIV-1 strain HTLVIIIB and above 100 µM in series [2] (setting [8]). The “IC50 values, inhibition” value in the series with HIV-1 strain HTLVIIIB is listed as “subnanomolar”.

“N-[3-(Pyrrolidinone)propyl]-N′-[2-(thiazolyl)]thiourea [Compound 12]” gave a CC50 in series [3] of 18 µM. Also, in the series on HIV-1 strain HTLVIIIB, the IC50 was determined as 9 µM.

As a reminder, the IC50 is the concentration that inhibits the measured activity by half. A word on the CC50: it is the concentration giving 50% cytotoxicity. Read a low CC50 as harm at low concentration.

The values are drawn from patent US6960606B2, “Adamantyl Thiazole Thioureas” (Parker Hughes Institute, priority 2000, dated 2005).
